According to PubChem BioAssay AID2060620 (Molecular Pharmacology Branch, DTP, NCI, 2025):

System: 328373-195-R-J1-PDC complex spheroids, viability % test/control
Assay: Anticancer human tumor 328373-195-R-J1-PDC patient-derived head and neck squamous carcinoma cell line growth inhibition [CLK]
Details: for IC50: curve of first compound; for viability, T/C: stronger effect = lower value
In short: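 Patient-derived tumor cells grown as complex spheroids with HUVEC endothelial cells and mesenchymal stem cells, treated with drug combinations. Concentrations descend in half-log steps from near clinical Cmax, or from 10 microM if Cmax unknown.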

[1] = second compound 0.0316 µM, first compound 0.00949 µM
[2] = second compound 0.0316 µM, first compound 0.03 µM
[3] = second compound 0.0316 µM, first compound 0.0949 µM
[4] = second compound 0.0316 µM, first compound 0.3 µM
[5] = second compound 0.1 µM, first compound 0.00949 µM
[6] = second compound 0.1 µM, first compound 0.03 µM
[7] = second compound 0.1 µM, first compound 0.0949 µM
[8] = second compound 0.1 µM, first compound 0.3 µM
[9] = second compound 0.316 µM, first compound 0.00949 µM
[10] = second compound 0.316 µM, first compound 0.03 µM
[11] = second compound 0.316 µM, first compound 0.0949 µM
[12] = second compound 0.316 µM, first compound 0.3 µM
[13] = second compound 1 µM, first compound 0.00949 µM
[14] = second compound 1 µM, first compound 0.03 µM
[15] = second compound 1 µM, first compound 0.0949 µM
[16] = second compound 1 µM, first compound 0.3 µM
[17] = second compound 3.16 µM, first compound 0.00949 µM
[18] = second compound 3.16 µM, first compound 0.03 µM
[19] = second compound 3.16 µM, first compound 0.0949 µM
[20] = second compound 3.16 µM, first compound 0.3 µM
[21] = second compound 10 µM, first compound 0.00949 µM
[22] = second compound 10 µM, first compound 0.03 µM
[23] = second compound 10 µM, first compound 0.0949 µM
[24] = second compound 10 µM, first compound 0.3 µM
[25] = second compound 0.0316 µM, first compound 0.0316 µM
[26] = second compound 0.0316 µM, first compound 0.1 µM
[27] = second compound 0.0316 µM, first compound 0.316 µM
[28] = second compound 0.0316 µM, first compound 1 µM
[29] = second compound 0.0316 µM, first compound 3.16 µM
[30] = second compound 0.0316 µM, first compound 10 µM
[31] = second compound 0.1 µM, first compound 0.0316 µM
[32] = second compound 0.1 µM, first compound 0.1 µM
[33] = second compound 0.1 µM, first compound 0.316 µM
[34] = second compound 0.1 µM, first compound 1 µM
[35] = second compound 0.1 µM, first compound 3.16 µM
[36] = second compound 0.1 µM, first compound 10 µM
[37] = second compound 0.316 µM, first compound 0.0316 µM
[38] = second compound 0.316 µM, first compound 0.1 µM
[39] = second compound 0.316 µM, first compound 0.316 µM
[40] = second compound 0.316 µM, first compound 1 µM
[41] = second compound 0.316 µM, first compound 3.16 µM
[42] = second compound 0.316 µM, first compound 10 µM
[43] = second compound 1 µM, first compound 0.0316 µM
[44] = second compound 1 µM, first compound 0.1 µM
[45] = second compound 1 µM, first compound 0.316 µM
[46] = second compound 1 µM, first compound 1 µM
[47] = second compound 1 µM, first compound 3.16 µM
[48] = second compound 1 µM, first compound 10 µM
[49] = second compound 3.16 µM, first compound 0.0316 µM
[50] = second compound 3.16 µM, first compound 0.1 µM
[51] = second compound 3.16 µM, first compound 0.316 µM
[52] = second compound 3.16 µM, first compound 1 µM
[53] = second compound 3.16 µM, first compound 3.16 µM
[54] = second compound 3.16 µM, first compound 10 µM
[55] = second compound 10 µM, first compound 0.0316 µM
[56] = second compound 10 µM, first compound 0.1 µM
[57] = second compound 10 µM, first compound 0.316 µM
[58] = second compound 10 µM, first compound 1 µM
[59] = second compound 10 µM, first compound 3.16 µM
[60] = second compound 10 µM, first compound 10 µM
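Note: spheroids exposed to the agents for 7 days.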

## C=CC(=O)Nc1cc(Nc2nccc(-c3cn(C)c4ccccc34)n2)c(OC)cc1N(C)CCN(C)C + CNC(=O)c1ccc(Nc2nc(OC3CCCC3)c3c(-c4ccc5nc(C)oc5c4)c[nH]c3n2)c(OC)c1
Second compound 0.0316 µM
  IC50: 39.4 nM
Second compound 0.1 µM
  IC50: < 0.949 nM
Second compound 0.316 µM
  IC50: < 0.949 nM
Second compound 1 µM
  IC50: < 0.949 nM
Second compound 3.16 µM
  IC50: < 0.949 nM
Second compound 10 µM
  IC50: < 0.949 nM
Second compound 0.0316 µM, first compound 0.000949 µM
  viability, T/C: 53.9%
Second compound 0.0316 µM, first compound 0.003 µM
  viability, T/C: 60.2%
[1]
  viability, T/C: 57.1%
[2]
  viability, T/C: 50.1%
[3]
  viability, T/C: 44%
[4]
  viability, T/C: 28.7%
Second compound 0.1 µM, first compound 0.000949 µM
  viability, T/C: 12.7%
Second compound 0.1 µM, first compound 0.003 µM
  viability, T/C: 11.5%
[5]
  viability, T/C: 10%
[6]
  viability, T/C: 10.6%
[7]
  viability, T/C: 6.8%
[8]
  viability, T/C: 4.77%
Second compound 0.316 µM, first compound 0.000949 µM
  viability, T/C: 10.9%
Second compound 0.316 µM, first compound 0.003 µM
  viability, T/C: 9.46%
[9]
  viability, T/C: 9.6%
[10]
  viability, T/C: 11.1%
[11]
  viability, T/C: 7.49%
[12]
  viability, T/C: 5.37%
Second compound 1 µM, first compound 0.000949 µM
  viability, T/C: 9.22%
Second compound 1 µM, first compound 0.003 µM
  viability, T/C: 11.8%
[13]
  viability, T/C: 9.93%
[14]
  viability, T/C: 9.14%
[15]
  viability, T/C: 7.31%
[16]
  viability, T/C: 3.84%
Second compound 3.16 µM, first compound 0.000949 µM
  viability, T/C: 10.8%
Second compound 3.16 µM, first compound 0.003 µM
  viability, T/C: 9.2%
[17]
  viability, T/C: 10.8%
[18]
  viability, T/C: 10.1%
[19]
  viability, T/C: 8.03%
[20]
  viability, T/C: 3.03%
Second compound 10 µM, first compound 0.000949 µM
  viability, T/C: 12%
Second compound 10 µM, first compound 0.003 µM
  viability, T/C: 10.6%
[21]
  viability, T/C: 11.6%
[22]
  viability, T/C: 11.5%
[23]
  viability, T/C: 9.82%
[24]
  viability, T/C: 3.85%

## CC1(C)CCC(CN2CCN(c3ccc(C(=O)NS(=O)(=O)c4ccc(NCC5CCOCC5)c([N+](=O)[O-])c4)c(Oc4cnc5[nH]ccc5c4)c3)CC2)=C(c2ccc(Cl)cc2)C1 + CNC(=O)c1ccc(Nc2nc(OC3CCCC3)c3c(-c4ccc5nc(C)oc5c4)c[nH]c3n2)c(OC)c1
Second compound 0.0316 µM
  IC50: 1390 nM
Second compound 0.1 µM
  IC50: < 31.6 nM
Second compound 0.316 µM
  IC50: < 31.6 nM
Second compound 1 µM
  IC50: < 31.6 nM
Second compound 3.16 µM
  IC50: < 31.6 nM
Second compound 10 µM
  IC50: < 31.6 nM
[25]
  viability, T/C: 55.4%
[26]
  viability, T/C: 54.7%
[27]
  viability, T/C: 51.1%
[28]
  viability, T/C: 55.7%
[29]
  viability, T/C: 39.5%
[30]
  viability, T/C: 7.81%
[31]
  viability, T/C: 9.96%
[32]
  viability, T/C: 10.7%
[33]
  viability, T/C: 12.1%
[34]
  viability, T/C: 11.7%
[35]
  viability, T/C: 11.5%
[36]
  viability, T/C: 6.36%
[37]
  viability, T/C: 10%
[38]
  viability, T/C: 10.9%
[39]
  viability, T/C: 10.2%
[40]
  viability, T/C: 9.51%
[41]
  viability, T/C: 8.53%
[42]
  viability, T/C: 6.4%
[43]
  viability, T/C: 7.73%
[44]
  viability, T/C: 8.42%
[45]
  viability, T/C: 10.8%
[46]
  viability, T/C: 10.6%
[47]
  viability, T/C: 9.13%
[48]
  viability, T/C: 6.23%
[49]
  viability, T/C: 8.9%
[50]
  viability, T/C: 11.5%
[51]
  viability, T/C: 10.7%
[52]
  viability, T/C: 10.2%
[53]
  viability, T/C: 9.43%
[54]
  viability, T/C: 6.44%
[55]
  viability, T/C: 12.1%
[56]
  viability, T/C: 9.87%
[57]
  viability, T/C: 10.2%
[58]
  viability, T/C: 11.4%
[59]
  viability, T/C: 12.4%
[60]
  viability, T/C: 11.9%

## NC(=O)C(=Cn1cnc(-c2cc(C(F)(F)F)cc(C(F)(F)F)c2)n1)c1cncnc1 + CNC(=O)c1ccc(Nc2nc(OC3CCCC3)c3c(-c4ccc5nc(C)oc5c4)c[nH]c3n2)c(OC)c1
Second compound 0.0316 µM
  IC50: < 9.49 nM
Second compound 0.1 µM
  IC50: < 9.49 nM
Second compound 0.316 µM
  IC50: < 9.49 nM
Second compound 1 µM
  IC50: < 9.49 nM
Second compound 3.16 µM
  IC50: < 9.49 nM
Second compound 10 µM
  IC50: < 9.49 nM
[1]
  viability, T/C: 38.7%
[2]
  viability, T/C: 20.8%
[3]
  viability, T/C: 0.53%
[4]
  viability, T/C: 0.2%
Second compound 0.0316 µM, first compound 0.949 µM
  viability, T/C: 0.1%
Second compound 0.0316 µM, first compound 3 µM
  viability, T/C: 0.07%
[5]
  viability, T/C: 15.9%
[6]
  viability, T/C: 3.9%
[7]
  viability, T/C: 0.26%
[8]
  viability, T/C: 0.16%
Second compound 0.1 µM, first compound 0.949 µM
  viability, T/C: 0.11%
Second compound 0.1 µM, first compound 3 µM
  viability, T/C: 0.06%
[9]
  viability, T/C: 6.88%
[10]
  viability, T/C: 2.56%
[11]
  viability, T/C: 0.37%
[12]
  viability, T/C: 0.09%
Second compound 0.316 µM, first compound 0.949 µM
  viability, T/C: 0.1%
Second compound 0.316 µM, first compound 3 µM
  viability, T/C: 1.78%
[13]
  viability, T/C: 5.63%
[14]
  viability, T/C: 1.81%
[15]
  viability, T/C: 0.17%
[16]
  viability, T/C: 0.06%
Second compound 1 µM, first compound 0.949 µM
  viability, T/C: 0.08%
Second compound 1 µM, first compound 3 µM
  viability, T/C: 0.06%
[17]
  viability, T/C: 5.68%
[18]
  viability, T/C: 1.86%
[19]
  viability, T/C: 0.15%
[20]
  viability, T/C: 0.15%
Second compound 3.16 µM, first compound 0.949 µM
  viability, T/C: 1.8%
Second compound 3.16 µM, first compound 3 µM
  viability, T/C: 0.15%
[21]
  viability, T/C: 5.83%
[22]
  viability, T/C: 2.16%
[23]
  viability, T/C: 0.18%
[24]
  viability, T/C: 0.11%
Second compound 10 µM, first compound 0.949 µM
  viability, T/C: 0.18%
Second compound 10 µM, first compound 3 µM
  viability, T/C: 0.15%

## Nc1ccccc1NC(=O)c1ccc(CNC(=O)OCc2cccnc2)cc1 + CNC(=O)c1ccc(Nc2nc(OC3CCCC3)c3c(-c4ccc5nc(C)oc5c4)c[nH]c3n2)c(OC)c1
Second compound 0.0316 µM
  IC50: 55 nM
Second compound 0.1 µM
  IC50: < 31.6 nM
Second compound 0.316 µM
  IC50: < 31.6 nM
Second compound 1 µM
  IC50: < 31.6 nM
Second compound 3.16 µM
  IC50: < 31.6 nM
Second compound 10 µM
  IC50: < 31.6 nM
[25]
  viability, T/C: 54.2%
[26]
  viability, T/C: 46.5%
[27]
  viability, T/C: 35.2%
[28]
  viability, T/C: 23.1%
[29]
  viability, T/C: 19.5%
[30]
  viability, T/C: 4.85%
[31]
  viability, T/C: 12.5%
[32]
  viability, T/C: 11.8%
[33]
  viability, T/C: 10.5%
[34]
  viability, T/C: 12.9%
[35]
  viability, T/C: 13.8%
[36]
  viability, T/C: 4.28%
[37]
  viability, T/C: 9.94%
[38]
  viability, T/C: 9.86%
[39]
  viability, T/C: 8.75%
[40]
  viability, T/C: 9.9%
[41]
  viability, T/C: 15.7%
[42]
  viability, T/C: 4.12%
[43]
  viability, T/C: 9.33%
[44]
  viability, T/C: 7.31%
[45]
  viability, T/C: 9.56%
[46]
  viability, T/C: 11.4%
[47]
  viability, T/C: 14.1%
[48]
  viability, T/C: 3.25%
[49]
  viability, T/C: 9.23%
[50]
  viability, T/C: 8.04%
[51]
  viability, T/C: 10.8%
[52]
  viability, T/C: 10.7%
[53]
  viability, T/C: 15.6%
[54]
  viability, T/C: 3.34%
[55]
  viability, T/C: 12.2%
[56]
  viability, T/C: 9.96%
[57]
  viability, T/C: 10.2%
[58]
  viability, T/C: 12.4%
[59]
  viability, T/C: 15.5%
[60]
  viability, T/C: 3.38%
